Source: patent publication US20150105252A1, “SUBSTITUTED PYRAZOLES AS HERBICIDES” (E I DU PONT DE NEMOURS AND COMPANY, priority 2013, published 2015)

Legend:
corn = experiment: Test A postemergence; type: in vivo, Zea mays
In short: (§1)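 Greenhouse test in loam soil/sand blend; compounds formulated in non-phytotoxic solvent with surfactant, applied as preemergence directed soil spray or postemergence to plants 2–10 cm tall at one- to two-leaf stage. Injury rated visually versus untreated controls after approximately 10 days on a 0 (no effect) to 100 (complete control) scale.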

barnyardgrass [1] = experiment: Test A postemergence; type: in vivo, Echinochloa crus-galli
In short: as §1

pigweed [2] = experiment: Test A preemergence; type: in vivo, Amaranthus retroflexus
In short: as §1

crabgrass, large = experiment: Test C preemergence; type: in vivo, Digitaria sanguinalis; settings: for Plant response rating (scale of 0 to 100), Crabgrass, Large: Preemergence, 250 g ai/ha
Text: (§2) Seeds of plant species selected from blackgrass (Alopecurus myosuroides), ryegrass, Italian (Italian ryegrass, Lolium multiflorum), wheat (winter wheat, Triticum aestivum), galium (catchweed bedstraw, Galium aparine), corn (Zea mays), crabgrass, large (large crabgrass, Digitaria sanguinalis), foxtail, giant (giant foxtail, Setaria faberii), johnsongrass (Sorghum halepense), lambsquarters (Chenopodium album), morningglory (Ipomoea coccinea), nutsedge, yellow (yellow nutsedge, Cyperus esculentus), pigweed (redroot pigweed, Amaranthus retroflexus), ragweed (common ragweed, Ambrosia elation), soybean (Glycine max), barnyardgrass (Echinochloa crus-galli), oilseed rape (Brassica napus), waterhemp (common waterhemp, Amaranthus rudis), oat, wild (wild oat, Avena fatua), kochia (Kochia scoparia), Surinam grass (Brachiaria decumbens), foxtail, green (green foxtail, Setaria viridis), goosegrass (Eleusine indica), bromegrass, downy (downy bromegrass, Bromus tectorum), nightshade (eastern black nightshade, Solanum ptycanthum), cocklebur (common cocklebur, Xanthium strumarium), cupgrass, woolly (woolly cupgrass, Eriochloa villosa), bermudagrass (Cynodon dactylon), sunflower, (common oilseed sunflower, Helianthus annuus), Russian thistle (Salsola kali), and velvetleaf (Abutilon theophrasti) were planted into a blend of loam soil and sand and treated preemergence with test chemicals formulated in a non-phytotoxic solvent mixture which included a surfactant.
(§3) At the same time, plants selected from these crop and weed species and also chickweed (common chickweed, Stellaria media), canarygrass (littleseed canarygrass, Phalaris minor), and deadnettle (henbit deadnettle, Lamium amplexicaule), were planted in pots containing Redi-Earth® planting medium (Scotts Company, 14111 Scottslawn Road, Marysville, Ohio 43041) comprising spaghnum peat moss, vermiculite, wetting agent and starter nutrients and treated with postemergence applications of test chemicals formulated in the same manner. Plants ranged in height from 2 to 18 cm (1- to 4-leaf stage) for postemergence treatments. Treated plants and controls were maintained in a greenhouse for 13 to 15 days, after which time all species were compared to controls and visually evaluated. Plant response ratings, summarized in Table C, are based on a scale of 0 to 100 where 0 is no effect and 100 is complete control. A dash (-) response means no test result.

barnyardgrass [3] = experiment: Test A preemergence; type: in vivo, Echinochloa crus-galli
In short: as §1

rice = experiment: Test B flood; type: in vivo, Oryza sativa; settings: 250 g ai/ha, visual rating on 0 to 100 scale (0 no effect, 100 complete control), 13 to 15 days
In short: (§4)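 Visual ratings on a 0–100 scale, where 0 means no effect and 100 means complete control, were assigned by comparison with controls 13 to 15 days after treatment. Compounds went into paddy water over 2-leaf plants flooded to 3 cm.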

barnyardgrass [4] = experiment: Test B flood; type: in vivo, Echinochloa crus-galli; settings: 250 g ai/ha, visual rating on 0 to 100 scale (0 no effect, 100 complete control), 13 to 15 days
In short: as §4

velvetleaf = experiment: Test A postemergence; type: in vivo, Abutilon theophrasti
In short: as §1

pigweed [5] = experiment: Test C preemergence; type: in vivo, Amaranthus retroflexus; settings: for Plant response rating (scale of 0 to 100), Pigweed: Preemergence, 250 g ai/ha
Text: as §2, §3

foxtail, giant = experiment: Test A postemergence; type: in vivo, Setaria faberii
In short: as §1

johnsongrass = experiment: Test C preemergence; type: in vivo, Sorghum halepense; settings: for Plant response rating (scale of 0 to 100), Johnsongrass: Preemergence, 250 g ai/ha
Text: as §2, §3

ryegrass, Italian = experiment: Test C preemergence; type: in vivo, Lolium multiflorum; settings: for Ryegrass, Italian plant response rating: preemergence
Text: as §2, §3

blackgrass = experiment: Test C preemergence; type: in vivo, Alopecurus myosuroides; settings: for Blackgrass plant response rating: preemergence
Text: as §2, §3

morningglory = experiment: Test C preemergence; type: in vivo, Ipomoea coccinea; settings: for Morningglory plant response rating: preemergence
Text: as §2, §3

[6] = Postemergence, 500 g ai/ha, visual rating after approx. 10 days, 0 to 100 scale (0 no effect, 100 complete control)
[7] = postemergence, 125 g ai/ha, about 10 days, visual rating on 0 to 100 scale (0 no effect, 100 complete control)
[8] = Preemergence, 500 g ai/ha, 0 to 100 scale, 0 no effect, 100 complete control
[9] = preemergence, 125 g ai/ha, visual injury, 0 to 100 scale, approx. 10 days
[10] = preemergence, 31 g ai/ha, visual rating, scale 0 to 100 (0 no effect, 100 complete control), 13 to 15 days
[11] = preemergence, 62 g ai/ha, 13 to 15 days, scale 0 to 100, 0 = no effect, 100 = complete control
[12] = preemergence, 125 g ai/ha, scale 0 to 100, 0 is no effect, 100 is complete control
[13] = Postemergence, 500 g ai/ha, 0 to 100 scale (0 no effect, 100 complete control)
[14] = preemergence, 500 g ai/ha, visual injury after approx. 10 days, 0 to 100 scale (0 no effect, 100 complete control)
[15] = preemergence, 62 g ai/ha, scale 0 to 100 (0 no effect, 100 complete control), 13 to 15 days
[16] = 31 g ai/ha, visual rating, scale 0 to 100 (0 no effect, 100 complete control), 13 to 15 days
[17] = 62 g ai/ha, scale 0 to 100 (0 no effect, 100 complete control), 13 to 15 days
[18] = 125 g ai/ha, scale 0 to 100, 0 is no effect, 100 is complete control
[19] = preemergence, 125 g ai/ha, visual injury approx. 10 days after treatment

Compound | Corn plant response rating (corn; [7]) | Pigweed plant response rating (pigweed [2]; [9]) | Plant response rating (scale of 0 to 100), Crabgrass, Large (crabgrass, large) | Crabgrass, Large plant response rating (crabgrass, large; [10]) | Crabgrass, Large plant response rating (crabgrass, large; [12]) | Barnyardgrass plant response rating (barnyardgrass [3]; [9]) | Plant response rating, Rice (rice) | Plant response rating, Barnyardgrass (barnyardgrass [4]) | Velvetleaf plant response rating (velvetleaf; [7]) | Plant response rating (scale of 0 to 100), Pigweed (pigweed [5]) | Pigweed plant response rating (pigweed [5]; [10]) | Pigweed plant response rating (pigweed [5]; [12]) | Foxtail, Giant plant response rating (foxtail, giant; [7]) | Plant response rating (scale of 0 to 100), Johnsongrass (johnsongrass) | Johnsongrass plant response rating (johnsongrass; [10]) | Corn plant response rating (corn; [13]) | Barnyardgrass plant response rating (barnyardgrass [1]; [13]) | Barnyardgrass plant response rating (barnyardgrass [1]; [7]) | Barnyardgrass plant response rating (barnyardgrass [3]; [14]) | Foxtail, Giant plant response rating (foxtail, giant; [13]) | other results
CCc1cc(C(=O)NCC(F)(F)F)nn1Cc1ccnc(C(F)(F)F)c1 [Compound 78, 5-ethyl-N-(2,2,2-trifluoroethyl)-1-[[(2-trifluoromethyl)-4-pyridinyl]methyl]-1H-pyrazole-3-carboxamide] | 100 | 100 | 100 | 100 | 100 | 100 | 50 | 50 | 100 | 100 | 100 | 100 | 90 | 100 | 85 |  |  |  |  |  | Corn plant response rating (corn; [6]): 100; Barnyardgrass plant response rating (barnyardgrass [1]; Postemergence, 125 g ai/ha, 0 to 100 scale, 0 no effect, 100 complete control): 50; Barnyardgrass plant response rating (barnyardgrass [1]; [6]): 90; Pigweed plant response rating (pigweed [2]; [8]): 100; Plant response rating, Crabgrass, Large (crabgrass, large; [11]): 100; Barnyardgrass plant response rating (barnyardgrass [3]; [8]): 100; Velvetleaf plant response rating (velvetleaf; [6]): 100; Plant response rating, Pigweed (pigweed [5]; [11]): 100; Foxtail, Giant plant response rating (foxtail, giant; [6]): 100; Plant response rating, Johnsongrass (johnsongrass; [11]): 95; Johnsongrass plant response rating (johnsongrass; [12]): 100
CCONC(=O)c1cc(CC)n(Cc2cc(C(F)(F)F)no2)n1 [Compound 125] | 30 | 100 | 95 | 5 | 75 | 80 | 10 | 20 |  | 100 | 65 | 90 | 30 | 10 | 0 | 90 | 90 | 30 | 100 | 90 | Pigweed plant response rating (pigweed [2]; [14]): 100; Crabgrass, Large plant response rating (crabgrass, large; [15]): 25; Plant response rating (scale of 0 to 100), Ryegrass, Italian (ryegrass, Italian; Preemergence, 250 g ai/ha): 95; Ryegrass, Italian plant response rating (ryegrass, Italian; [16]): 0; Ryegrass, Italian plant response rating (ryegrass, Italian; [17]): 30; Ryegrass, Italian plant response rating (ryegrass, Italian; [18]): 20; Pigweed plant response rating (pigweed [5]; [15]): 75; Johnsongrass plant response rating (johnsongrass; [15]): 0; Johnsongrass plant response rating (johnsongrass; [12]): 5; Plant response rating (scale of 0 to 100), Blackgrass (blackgrass; Preemergence, 250 g ai/ha): 80; Blackgrass plant response rating (blackgrass; [16]): 0; Blackgrass plant response rating (blackgrass; [17]): 10; Blackgrass plant response rating (blackgrass; [18]): 60; Plant response rating (scale of 0 to 100), Morningglory (morningglory; Preemergence, 250 g ai/ha): 95; Morningglory plant response rating (morningglory; [16]): 45; Morningglory plant response rating (morningglory; [17]): 50; Morningglory plant response rating (morningglory; [18]): 75
CCCc1cc(C(=O)NCC(F)(F)F)nn1Cc1cc(C(F)(F)F)nn1C [Compound 138] | 80 | 100 |  |  |  | 100 | 50 | 50 | 60 |  |  |  | 100 |  |  | 90 | 100 | 100 | 100 | 100 | Pigweed plant response rating (pigweed [2]; [14]): 100; Velvetleaf plant response rating (velvetleaf; [13]): 100
CCc1cc(C(=O)NCC(F)(F)F)nn1Cc1cc(OC(F)F)nn1C [Compound 206] | 30 |  |  |  |  |  | 0 | 0 |  |  |  |  | 0 |  |  | 60 | 60 | 0 | 90 | 80 | Pigweed plant response rating (0 to 100 scale) (pigweed [2]; [19]): 90; Barnyardgrass plant response rating (0 to 100 scale, 0 is no effect, 100 is complete control) (barnyardgrass [3]; [19]): 0
